Experimental data as given in PMC9407656 (Proceedings of the National Academy of Sciences of the …, 2022).
Where “and” joins values, the source holds several entries; their conditions need not be identical. Equal values may be shown once. Read-outs that look alike come from different tables or passages of the source.

Experiments:
B. malayi AVR-14B GluCl = biological target: T1, B. malayi AVR-14B GluCl (Brugia malayi, UniProt A0A0K0J2Q9); assay: Two-electrode voltage-clamp on Xenopus laevis oocytes expressing Bma-AVR-14B; details: for agonist activity (in words): tested at 1 mM; for direct activation as agonist (in words): 0.3 to 100 µM; for L-glutamate-mediated current response (mean ± SEM) / activation at 1000 µM / activation at 10000 µM: normalized to 10 mM L-glutamate
T1 sequence (A0A0K0J2Q9 19-427): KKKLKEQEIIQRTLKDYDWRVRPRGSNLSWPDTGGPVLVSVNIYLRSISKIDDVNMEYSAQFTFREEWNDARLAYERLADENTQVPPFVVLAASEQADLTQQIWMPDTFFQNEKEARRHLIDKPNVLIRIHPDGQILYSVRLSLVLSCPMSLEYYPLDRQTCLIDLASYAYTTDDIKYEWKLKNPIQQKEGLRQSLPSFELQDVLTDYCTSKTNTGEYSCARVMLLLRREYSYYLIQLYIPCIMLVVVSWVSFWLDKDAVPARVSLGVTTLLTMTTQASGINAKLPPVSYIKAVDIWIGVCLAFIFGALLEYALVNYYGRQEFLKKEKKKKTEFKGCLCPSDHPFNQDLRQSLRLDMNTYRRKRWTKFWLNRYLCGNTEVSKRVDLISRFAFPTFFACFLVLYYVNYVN

B. malayi = details: cited from earlier work; for gradual recovery from the paralytic effects: treated worms
[1] = tested on: C. oncophora IVS AVR-14/GluClα3; details: IVM-sensitive strain; SI table ref 5; cited from earlier work
adult B. malayi worms = assay: Adult B. malayi worm motility; type: cell-based, Brugia malayi; details: for pIC50, inhibition of motility / IC50: 24 h exposure; for IC50: read-out: IC50, inhibition of motility; for recovery from the motility paralysis: treated adult worms
[2] = tested on: H. contortus AVR-14B/GluClα3B; details: SI table ref 3, cited from earlier work
[3] = tested on: C. oncophora IVR AVR-14/GluClα3; details: IVM-resistant strain; SI table ref 5; cited from earlier work
[4] = tested on: C. elegans AVR-14B/GluClα3B; details: cited from earlier work
[5] = tested on: D. immitis AVR-14B/GluClα3B; details: cited from earlier work
[6] = coapplied with 30 mM L-glutamate
[7] = peak current normalized to 30 mM L-glutamate
[8] = read-out: IC50(female), motility, female B. malayi

Cc1onc(O)c1CC(N)C(=O)O (stereo not drawn) [AMPA, α-amino-3-hydroxy-5-methyl-4-isoxazolepropionic acid]
agonist activity (in words) (B. malayi AVR-14B GluCl): failed to induce any measurable channel activity

CCN(CC)C(=O)N1CCN(C)CC1 [DEC, diethylcarbamazine]
IC50 (B. malayi; read-out: IC50, motility, B. malayi): 4.4 µM
gradual recovery from the paralytic effects (B. malayi): 3 to 4 h

N#Cc1nn(-c2c(Cl)cc(C(F)(F)F)cc2Cl)c(N)c1[S+]([O-])C(F)(F)F (stereo not shown) [FIP, fipronil]
direct activation as agonist (in words) (B. malayi AVR-14B GluCl): failed to produce direct activation
IC50 (B. malayi AVR-14B GluCl; IC50, inhibition of L-glutamate-gated current, coapplied with 30 mM L-glutamate): 1.8 µM
nH, inhibition of L-glutamate-gated current (B. malayi AVR-14B GluCl; [6]): −1.3 ± 0.4
IC50 (B. malayi AVR-14B GluCl; pIC50, inhibition of L-glutamate-gated current, coapplied with 30 mM L-glutamate): 2 µM
inhibition at 100 µM (B. malayi AVR-14B GluCl; read-out: inhibition of the glutamate response): ~95%

NCCCC(=O)O [GABA, γ-amino butyric acid]
agonist activity (in words) (B. malayi AVR-14B GluCl): inactive

NCC(=O)O [Glycine, glycine]
agonist activity (in words) (B. malayi AVR-14B GluCl): inactive

CC[C@H](C)[C@H]1O[C@]2(CC[C@@H]1C)C[C@@H]1C[C@@H](C/C=C(\C)[C@@H](O[C@H]3C[C@H](OC)[C@@H](O[C@H]4C[C@H](OC)[C@@H](O)[C@H](C)O4)[C@H](C)O3)[C@@H](C)/C=C/C=C3\CO[C@@H]4[C@H](O)C(C)=C[C@@H](C(=O)O1)[C@]34O)O2 [IVM, ivermectin]
EC50 [1]: 0.5 µM
pIC50, inhibition of motility (adult B. malayi worms; adult female worms): 5.9 ± 0.4
pIC50, inhibition of motility (adult B. malayi worms; adult male worms): 4.9 ± 0.2
IC50 (adult B. malayi worms; adult female worms): 1.1 µM
IC50 (adult B. malayi worms; adult male worms): 11.6 µM
recovery from the motility paralysis (adult B. malayi worms): do not show any sign of recovery
EC50 ([2]; read-out: estimated EC50): ~0.0001 µM
EC50 [3]: 1.3 µM
direct activation of receptor (in words) (B. malayi AVR-14B GluCl; 1 pM IVM): did not activate the Bma-AVR-14B receptor directly
effect on NA-mediated effects (in words) (B. malayi AVR-14B GluCl; 0.1 nM IVM, NA with 30 µM L-glutamate): eliminated the agonist as well as PAM effects of NA
L-glutamate-mediated current response (mean ± SEM) (B. malayi AVR-14B GluCl; 100 µM L-glutamate in the presence of 0.1 nM IVM): 1.3 ± 0.3%
L-glutamate-mediated current response (mean ± SEM) (B. malayi AVR-14B GluCl; 1 mM L-glutamate in the presence of 0.01 nM IVM): 34.2 ± 7.5%
L-glutamate-mediated current response (mean ± SEM) (B. malayi AVR-14B GluCl; 1 mM L-glutamate in the presence of 0.1 nM IVM): 4.0 ± 0.6%
L-glutamate-mediated current response (mean ± SEM) (B. malayi AVR-14B GluCl; 10 mM L-glutamate in the presence of 0.01 nM IVM): 70.3 ± 7.9%
L-glutamate-mediated current response (mean ± SEM) (B. malayi AVR-14B GluCl; 10 mM L-glutamate in the presence of 0.1 nM IVM): 7.7 ± 0.7%
nH (Hill coefficient), direct activation (B. malayi AVR-14B GluCl; [7]): 0.3 ± 0.1 and 0.3 ± 0.2
pEC50, direct activation (B. malayi AVR-14B GluCl; [7]): 8.7 ± 1.2

N[C@@H](CC(=O)O)C(=O)O [L-aspartate]
agonist activity (in words) (B. malayi AVR-14B GluCl): failed to induce any measurable channel activity

N[C@@H](CCC(=O)O)C(=O)O [L-glutamate]
EC50 [1]: 29.7 µM
EC50 [2]: 27.6 µM
EC50 [3]: 96.1 µM
EC50 [4]: 2200 µM
EC50 [5]: ~1000 µM
time constant of desensitization (τ) (B. malayi AVR-14B GluCl; 3 µM L-glutamate): 1.3 ± 0.3 s
reversal potential (Erev) of glutamate-gated currents (B. malayi AVR-14B GluCl; 1 mM L-glutamate, −80 to +20 mV): −28.9 ± 2.9 mV
time constant of desensitization (τ) (B. malayi AVR-14B GluCl; 30 mM L-glutamate): 0.6 ± 0.1 s
nH (Hill coefficient), direct activation (B. malayi AVR-14B GluCl; [7]): 0.8 ± 0.3
activation at 1000 µM (B. malayi AVR-14B GluCl; read-out: L-glutamate-mediated current response (mean ± SEM), 1 mM L-glutamate alone, 0.01 nM IVM experiment): 54.3 ± 9.2%
activation at 1000 µM (B. malayi AVR-14B GluCl; read-out: L-glutamate-mediated current response (mean ± SEM), 1 mM L-glutamate alone, 0.1 nM IVM experiment): 52.8 ± 3.3%
activation at 10000 µM (B. malayi AVR-14B GluCl; read-out: L-glutamate-mediated current response (mean ± SEM), 10 mM L-glutamate alone, 0.01 nM IVM experiment): 100%
activation at 10000 µM (B. malayi AVR-14B GluCl; read-out: L-glutamate-mediated current response (mean ± SEM), 10 mM L-glutamate alone, 0.1 nM IVM experiment): 100%

C/C(=C\C=C\[C@]1(C)[C@@H](O)CC[C@@]2(C)[C@H]1CC[C@H]1Cc3c([nH]c4cc5c(cc34)C3=CC(C)(C)OC(C)(C)[C@H]3C5)[C@@]12C)C(=O)O [NA, Nodulisporic acid]
exposure required to produce a reduction in worm motility similar to IVM (adult B. malayi worms; adult worms): > 3 days
recovery from the motility paralysis (adult B. malayi worms): do not show any sign of recovery
EC50 (B. malayi AVR-14B GluCl; EC50, direct activation (agonist), normalized to 30 mM L-glutamate): 2.7 µM
nH, potentiation (PAM) of L-glutamate response (B. malayi AVR-14B GluCl; in the presence of 30 µM L-glutamate): 0.8 ± 0.4
increase in the mean AUC response of L-glutamate (B. malayi AVR-14B GluCl; in the presence of NA): approximately sevenfold increase
EC50 (B. malayi AVR-14B GluCl; pEC50, direct activation, peak current normalized to 30 mM L-glutamate): 2.51 µM
nH (Hill coefficient), direct activation (B. malayi AVR-14B GluCl; [7]): 1.6 ± 0.8

CN[C@H](CC(=O)O)C(=O)O [NMDA, N-methyl-D-aspartic acid]
agonist activity (in words) (B. malayi AVR-14B GluCl): failed to induce any measurable channel activity

CC(C)C[C@H]1C(=O)O[C@H](Cc2ccc(N3CCOCC3)cc2)C(=O)N(C)[C@@H](CC(C)C)C(=O)O[C@H](C)C(=O)N(C)[C@@H](CC(C)C)C(=O)O[C@H](Cc2ccc(N3CCOCC3)cc2)C(=O)N(C)[C@@H](CC(C)C)C(=O)O[C@H](C)C(=O)N1C [emodepside]
IC50 (B. malayi; [8]): 0.801 µM
IC50 (B. malayi; read-out: IC50(male), motility, male B. malayi): 0.176 µM

N[C@H](C(=O)O)c1cc(O)no1 [ibotenate]
normalized current response to agonist (mean ± SEM) (B. malayi AVR-14B GluCl; agonist 1 mM, normalized to 1 mM L-glutamate response): 73.4 ± 2.5%

C=C(C)[C@H]1CN[C@H](C(=O)O)[C@H]1CC(=O)O [kainate]
agonist activity (in words) (B. malayi AVR-14B GluCl): failed to induce any measurable channel activity

c1ccc([C@H]2CN3CCSC3=N2)cc1 [levamisole]
IC50 (B. malayi; [8]): 0.01 µM
gradual recovery from the paralytic effects (B. malayi): 3 to 4 h

N[C@@H](Cn1oc(=O)[nH]c1=O)C(=O)O [quisqualate]
agonist activity (in words) (B. malayi AVR-14B GluCl): failed to induce any measurable channel activity

picrotoxin [PTX]
inhibition of the glutamate response (B. malayi AVR-14B GluCl; 100 µM, 30 mM L-glutamate): failed to completely block
direct activation as agonist (in words) (B. malayi AVR-14B GluCl): failed to produce direct activation
nH, inhibition of L-glutamate-gated current (B. malayi AVR-14B GluCl; [6]): −1.2 ± 0.6
pIC50, inhibition of L-glutamate-gated current (B. malayi AVR-14B GluCl; [6]): 4.5 ± 0.2
IC50 (B. malayi AVR-14B GluCl; read-out: IC50, inhibition of L-glutamate-gated current, coapplied with 30 mM L-glutamate): 33.1 µM
